Test systems include DLD-1 colon; DMS 273 small cell lung; KM20L2 colon; M19-MEL melanoma; HOP-18 NSCLC; LXFL 529 NSCLC; RXF-631 renal; XF 498 CNS; MDA-N; P388 leukemia; P388/ADR leukemia; SN12K1 renal.
Holding throughout (test): NCI tumour cell line growth inhibition, 48 h

“And” between values parts separate entries of the source, which are not always exact repeats. Equal values may be shown once.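 48-hour exposure; five concentrations; linearly interpolated endpoints. The concentration for 50% growth inhibition is given as GI50. At the TGI there is no net growth.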 Some results are limits rather than exact numbers.

Consider 18 compounds from PubChem BioAssay (NCI).

Consider `N#Cc1c(CC(=O)O)cc(=O)n2c1[nH]c1ccccc12`, for which the TGI in the experiment with DLD-1 colon, in the experiment with DMS 273 small cell lung, with KM20L2 colon and with M19-MEL melanoma was above 100 µM in each case.
Turning to `Cc1ccccc1NC(=O)CC(=O)NNCC(=O)Nc1nnc(-c2ccccc2)s1`, the TGI in the experiment with DLD-1 colon is above 100 µM; in the experiment with DMS 273 small cell lung, above 100 µM; with HOP-18 NSCLC it was 96.2 µM; in the experiment with KM20L2 colon, above 100 µM; with LXFL 529 NSCLC it was above 100 µM; in the experiment with M19-MEL melanoma it was above 100 µM. Besides, the TGI in the experiment on RXF-631 renal and in the experiment on XF 498 CNS was above 100 µM throughout.
Consider `O=C(CC1(O)C(=O)Nc2c(Cl)ccc(Cl)c21)c1ccc(Cl)cc1` (stereo not given), for which the TGI with DLD-1 colon was above 100 µM; in the experiment on DMS 273 small cell lung it was 73.5 µM; in the experiment on HOP-18 NSCLC, above 100 µM; with KM20L2 colon, above 100 µM; in the experiment on LXFL 529 NSCLC, 88.9 µM; with M19-MEL melanoma it was 33.3 µM. Also, the TGI with RXF-631 renal worked out at 64.3 µM; in the experiment with XF 498 CNS it was 39.9 µM.
For the compound `CN(C)CCNC(=O)c1cccc2c1nc(-c1cccnc1)c1ccccc12`, the TGI is 21.2 µM in the experiment with DLD-1 colon; 14.2 µM with DMS 273 small cell lung; 64 µM in the experiment on HOP-18 NSCLC; 18.5 µM in the experiment on M19-MEL melanoma; 16.7 µM in the experiment with RXF-631 renal.
Turning to `O/N=C1/C(=C/c2ccc(OCc3ccccc3)cc2)CCCC1C(NO)c1ccc(OCc2ccccc2)cc1` (stereo not given), the TGI in the experiment with DLD-1 colon, in the experiment with DMS 273 small cell lung, with HOP-18 NSCLC, in the experiment on KM20L2 colon, in the experiment on LXFL 529 NSCLC and with M19-MEL melanoma was above 100 µM each time. For the same compound, the TGI with RXF-631 renal was above 100 µM.
In the case of `CC1(C)CC(=O)C(C(=O)Nc2cccs2)=C(O)C1`, the TGI in the experiment on DLD-1 colon is above 100 µM; in the experiment with DMS 273 small cell lung it was 82 µM; in the experiment on HOP-18 NSCLC it was above 100 µM; in the experiment on KM20L2 colon it was above 100 µM; with LXFL 529 NSCLC, above 100 µM; with M19-MEL melanoma, above 100 µM. The TGI is above 100 µM in the experiment on RXF-631 renal and 82.7 µM in the experiment with XF 498 CNS.
Turning to `COc1nc(N)nc2nc[nH]c12`, the GI50 is 655 µM with DLD-1 colon; above 800 µM in the experiment on DMS 273 small cell lung; 641 µM in the experiment on HOP-18 NSCLC; above 800 µM with KM20L2 colon; above 800 µM in the experiment with M19-MEL melanoma; 760 µM in the experiment on MDA-N. The TGI with DLD-1 colon was 500 µM and 800 µM; with DMS 273 small cell lung, 500 µM and > 800 µM; in the experiment with HOP-18 NSCLC it was 499 µM and 800 µM; in the experiment on KM20L2 colon, above 800 µM; in the experiment on LXFL 529 NSCLC, above 800 µM; in the experiment with M19-MEL melanoma, above 800 µM. Further, the TGI in the experiment on MDA-N is above 1000 µM; in the experiment with P388 leukemia, 500 µM; with P388/ADR leukemia, 500 µM; in the experiment on RXF-631 renal, 800 µM; in the experiment on SN12K1 renal it was 500 µM; in the experiment on XF 498 CNS, 498 µM.
`O=C(CC1(O)C(=O)Nc2c(Cl)cc(Cl)cc21)c1cccc([N+](=O)[O-])c1` (stereo not given): the TGI is above 100 µM with DLD-1 colon; above 100 µM in the experiment on DMS 273 small cell lung; 98.6 µM in the experiment with HOP-18 NSCLC; above 100 µM with KM20L2 colon; 30 µM in the experiment on LXFL 529 NSCLC; 16.7 µM in the experiment with M19-MEL melanoma. For the same compound, the TGI in the experiment on MDA-N turned out to be 34.6 µM; in the experiment on RXF-631 renal, 92.1 µM; in the experiment with XF 498 CNS it was 37.3 µM.
Compound `O=S(=O)(O)C(c1ccccc1)C(O)c1ccccc1` (stereo not given) came in with a TGI with MDA-N above 100 µM.
Turning to `CCOC(=O)C1C(NC(N)=O)N(Cc2ccccc2)C(=O)N1Cc1ccccc1` (stereo not given), the TGI in the experiment with DLD-1 colon, in the experiment with DMS 273 small cell lung, with HOP-18 NSCLC, in the experiment with KM20L2 colon, in the experiment on LXFL 529 NSCLC and with M19-MEL melanoma was above 100 µM each time. In addition, the TGI with RXF-631 renal and in the experiment with XF 498 CNS was above 100 µM throughout.
`CC(C)(C)C1CC[C@H]2c3c([nH]c4ccccc34)[C@H]3C(=O)N(c4ccc(F)cc4)C(=O)[C@H]3[C@H]2C1` (stereo not given in full): the TGI stood at 37.4 µM in the experiment with DLD-1 colon; 33.3 µM in the experiment on DMS 273 small cell lung; 34.4 µM in the experiment on HOP-18 NSCLC; 46.5 µM in the experiment with KM20L2 colon; 30.7 µM in the experiment with LXFL 529 NSCLC; 34.7 µM in the experiment with M19-MEL melanoma. Also, in the experiment on XF 498 CNS, the TGI was 32.3 µM.
Consider `CC1(C)CC2=NO[Se]3=C2C(=NO3)C1`, for which the TGI in the experiment with MDA-N worked out at 4.22 µM.
As to `CC(=O)NC(CCCNC(=O)OCc1ccccc1)C(=O)NCc1ccccc1` (stereo not given), the TGI in the experiment with DLD-1 colon, with DMS 273 small cell lung, with KM20L2 colon, in the experiment on LXFL 529 NSCLC, with M19-MEL melanoma and in the experiment with XF 498 CNS was above 100 µM throughout.
As for `CN1S(=O)(=O)N(C)P12(N=P(CP(=NP13(N(C)S(=O)(=O)N1C)N(C)S(=O)(=O)N3C)(c1ccccc1)c1ccccc1)(c1ccccc1)c1ccccc1)N(C)S(=O)(=O)N2C`, the TGI with DLD-1 colon, with DMS 273 small cell lung, in the experiment on HOP-18 NSCLC, with KM20L2 colon, in the experiment on LXFL 529 NSCLC and with M19-MEL melanoma was above 100 µM in each case. Also, the TGI in the experiment with RXF-631 renal and with XF 498 CNS was above 100 µM in each case.
The compound `NS(=O)(=O)c1cc2c(cc1Cl)NCNS2(=O)=O` showed a TGI in the experiment with MDA-N above 100 µM.
For `COc1ccc(C(C)Nc2cc(OC)c(OC)c(OC)c2)cc1` (stereo not given), the TGI in the experiment with DLD-1 colon is above 100 µM; with DMS 273 small cell lung, above 100 µM; in the experiment on HOP-18 NSCLC, above 100 µM; in the experiment on KM20L2 colon, 7.3 µM; with LXFL 529 NSCLC, above 100 µM; with M19-MEL melanoma, above 100 µM. Besides, in the experiment with XF 498 CNS, the TGI was above 26.4 µM.
Turning to `COC1=CC(=O)C(O)=C(CC2(C)C(C)CCC3(C)C2CCCC3(C)C)C1=O` (stereo not given), the TGI came to 45.1 µM in the experiment on DLD-1 colon; 18.3 µM with DMS 273 small cell lung; 13 µM with HOP-18 NSCLC; 13.2 µM in the experiment with KM20L2 colon; 22.7 µM with LXFL 529 NSCLC; 7.07 µM in the experiment on M19-MEL melanoma. Also, the TGI is above 100 µM in the experiment on RXF-631 renal and 22.4 µM with XF 498 CNS.
Consider `N=C(N)SCc1ccc(Cl)c2ccccc12` (tested in a mixture with another compound), for which, in the experiment on MDA-N, the TGI is 23.4 µM and 24.8 µM.
